Measurements as given in US20240082211A1, “SOLUBLE EPOXIDE HYDROLASE AS A TARGET FOR OCULAR DISEASES” (Indiana University Research and Technology Corporation, priority 2017, published 2024).

Legend:
human sEH = molecular target: T1, human sEH (Homo sapiens, UniProt P34913); assay: sEH enzyme kinetics (PHOME hydrolysis, Michaelis-Menten/Dixon analysis); format: biochemical; details: for type of inhibition of sEH: Lineweaver-Burk and Dixon plots; for Ki: human sEH, PHOME
T1 construct: purchased Cayman Chemical
T1 sequence (P34913 1-555): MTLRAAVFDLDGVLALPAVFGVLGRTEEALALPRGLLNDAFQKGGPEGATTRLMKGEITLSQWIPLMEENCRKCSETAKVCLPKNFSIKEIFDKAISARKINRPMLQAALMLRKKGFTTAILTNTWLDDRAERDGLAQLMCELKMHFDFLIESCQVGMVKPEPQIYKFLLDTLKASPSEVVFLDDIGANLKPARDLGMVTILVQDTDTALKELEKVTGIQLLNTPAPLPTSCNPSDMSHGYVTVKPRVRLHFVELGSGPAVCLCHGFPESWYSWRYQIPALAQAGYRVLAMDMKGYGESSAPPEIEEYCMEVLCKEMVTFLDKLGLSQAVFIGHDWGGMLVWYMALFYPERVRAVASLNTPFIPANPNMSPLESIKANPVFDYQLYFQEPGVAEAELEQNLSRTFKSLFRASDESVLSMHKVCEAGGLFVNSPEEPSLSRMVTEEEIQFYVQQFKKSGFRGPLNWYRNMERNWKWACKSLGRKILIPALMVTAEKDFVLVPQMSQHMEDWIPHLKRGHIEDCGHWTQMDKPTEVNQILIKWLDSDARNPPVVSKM
Method: Various concentrations of compound dissolved in DMSO (final DMSO concentration=5% (v/v)) and human sEH (60 ng/mL final concentration; Cayman Chemical) in 25 mM bis-Tris-HCl buffer containing 0.1% (w/v) BSA were mixed in a 96 well plate. PHOME at indicated concentrations was added to the wells to initiate the reaction and fluorescence was read with an excitation wavelength of 330 nm and emission wavelength of 465 nm. The standard curve plotted from dilutions of the product, 6-methoxy-2-naphthaldehyde, was used to convert fluorescence reading (RFU/min) to sEH activity (nmol product formed/min). The reaction rate was obtained from the slope of the line from time=5 to 15 minutes for each substrate concentration, and analyzed using GraphPad Prism 7 and SigmaPlot 13.0 to determine Michaelis-Menten kinetic parameters.

sEH = assay: Lipid profiling of retina/choroid in L-CNV mice (19,20-EDP/DHDP ratio as sEH activity in vivo); set-up: species or system mouse; details: 10 μM intravitreal, 3 days post-laser, vs vehicle treated controls
Method: The L-CNV mouse model and injections were performed as previously described. […] Compounds where indicated were injected a single time immediately post-laser treatment, delivered intravitreally using a 33-gauge needle, in a 0.5 μL volume. […] Vehicle alone (PBS+0.5% (v/v) DMSO) was used as negative control. […] Eyes were numbed with tetracaine solution before the injection, and triple antibiotic ointment was used immediately after the injection to prevent infection. Lipid Profiling
Mice were sacrificed 3 days post-laser-treatment, eyes were enucleated and retina/choroid layers were immediately separated and stored at −80° C.

[1] = molecular target: T2, sEH activity in L-CNV eye tissue homogenates (Mus musculus, UniProt P34914); assay: Tissue-based sEH activity assay using trans-stilbene oxide; format: biochemical; details: 20 μM, 3 days post-laser-treatment, trans-stilbene oxide substrate
T2 construct: from tissue; host or cells: mouse eye homogenate (C57BL/6J, L-CNV), 100,000 x g supernatant
T2 sequence (P34914 1-554): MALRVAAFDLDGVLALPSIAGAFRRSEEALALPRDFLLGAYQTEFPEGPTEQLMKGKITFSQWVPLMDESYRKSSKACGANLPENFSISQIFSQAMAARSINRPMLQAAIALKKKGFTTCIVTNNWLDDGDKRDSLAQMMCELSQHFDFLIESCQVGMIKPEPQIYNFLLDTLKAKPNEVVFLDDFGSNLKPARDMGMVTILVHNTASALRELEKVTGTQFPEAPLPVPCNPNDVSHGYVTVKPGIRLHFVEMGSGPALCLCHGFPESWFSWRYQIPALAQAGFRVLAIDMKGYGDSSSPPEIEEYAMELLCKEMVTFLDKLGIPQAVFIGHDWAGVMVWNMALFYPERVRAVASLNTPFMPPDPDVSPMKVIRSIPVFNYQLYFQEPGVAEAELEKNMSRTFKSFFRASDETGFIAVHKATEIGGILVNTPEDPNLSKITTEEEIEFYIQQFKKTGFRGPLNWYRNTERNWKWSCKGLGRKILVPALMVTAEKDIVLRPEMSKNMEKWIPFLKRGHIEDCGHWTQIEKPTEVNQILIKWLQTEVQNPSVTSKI
Method: The sEH activity in tissue homogenates was assayed using trans-stilbene oxide (t-SO) as substrate. The assay is based on the hydrolysis of t-SO that is tracked as a decrease in the absorbance at 230 nm. L-CNV was induced as described above. After 3 days, enucleated eyes from both untreated and L-CNV mice were homogenized in 0.2 M sodium phosphate buffer, pH 7.4. To remove microsomal epoxide hydrolase and lenses, tissue extracts were centrifuged at 100,000×g for 30 minutes at 4° C. After protein estimation, 100 μL of tissue homogenates (100 μg/mL) and 98 μL of SH-11037 or 7 dissolved in DMSO/buffer (final 1% (v/v) DMSO) were added to a UV-transparent 96-well plate. After 5 minutes' incubation at room temperature, 2 μL of t-SO in ethanol (100 μM final concentration) was added to assay wells to initiate the reaction. The absorbance was read at 230 nm for 20 minutes. sEH activity was determined as follows:
sEH Activity=[(A0−A20)−(B0−B20)]/mg of protein in a reaction
Where A0 and A20 are absorbance of test wells read at 230 nm at time 0 and 20 minutes respectively, and B0 and B20 are absorbance of background wells read at 230 nm at time 0 and 20 minutes.

[2] = system: choroidal neovascularization; details: cited from earlier work
[3] = molecular target: T3, soluble epoxide hydrolase (sEH) (Homo sapiens, UniProt P34913); assay: Recombinant soluble epoxide hydrolase activity assay (fluorogenic substrate PHOME)
T3 sequence (P34913 1-555): T1 sequence (P34913 1-555)
Method: Compounds were dissolved in DMSO (final DMSO concentration=5% (v/v)). Activity was calculated according to:
% Initial Activity=[(FI15−FI0)/(FT15−FT0)]×100%
where FI is the background corrected fluorescence signal obtained in the presence of an inhibitor and FT is the background corrected fluorescence signal obtained for the total activity at times 0 and 15 minutes. IC50 values were calculated using GraphPad Prism v.

[4] = system: choroidal neovascularization; assay: Laser-induced choroidal neovascularization (L-CNV) mouse model, CNV lesion volume; format: in vivo; details: single intravitreal injection, 14 days post-laser, vs vehicle
[5] = system: mouse choroidal sprouting; assay: Choroidal sprouting assay (ex vivo); format: cell-based; details: 0.1, 1, 10 μM, 48 hours, vs vehicle
Method: Benzisoxazole sEH inhibitor 7 was synthesized according to the method as described in Shen et al., Bioorg. […] Sprouting of endothelial cells from choroidal layers was tested as described in Sulaiman et al., Sci. Rep. […] The final concentration of DMSO in each well was 0.2% (v/v). Images were taken using an EVOS-fl digital microscope (AMG, Mill Creek, WA, USA) and data were analyzed as the sprouting distance in four different directions using ImageJ software v.1.48v (http://imagej.nih.gov/ij/).

Ki (human sEH; Dixon plot, n=3) [nM] | SMILES | type of inhibition of sEH (human sEH) | Ki (human sEH) [nM] | ratio of 19,20-EDP to 19,20-DHDP in retina/choroid (sEH) | sEH activity in L-CNV eye lysates [1] | combination with anti-VEGF antibody in L-CNV ([2]; WO 2017/091473) | effective doses in L-CNV, intravitreal ([2]; previously shown (Sulaiman et al. 2016; WO 2017/091473)) [µM] | IC50 [3] [nM] | CNV lesion vascular volume [4] | ability of choroidal tissues to form sprouts [5]
– | COc1ccc(CC2COc3cc(OC)c(OC)c(OC)c3C2=O)cc1OC(=O)[C@H](Cc1ccccc1)NC(=O)OC(C)(C)C (stereo partly drawn) [SH-11037, (2S)-2-methoxy-5-((5,6,7-trimethoxy-4-oxochroman-3-yl)methyl)phenyl 2-((tert-butoxycarbonyl)amino)-3-phenylpropanoate] | mixed-type inhibitor | 1730 ± 450 | partially normalized | normalized | synergize | > 1 | 150 | – | –
19.6 | FC(F)(F)c1ccc(Nc2noc3c(C(F)(F)F)cccc23)cc1 [compound 7, 7-(trifluoromethyl)-N-(4-(trifluoromethyl)phenyl) benzo[d]isoxazol-3-amine, reference compound] | mixed-type inhibitor | – | – | normalized | – | – | 9.5 | dose-dependently suppressed | suppressed
